# Several values for one entry are separate records, joined by “and”; a condition that tells them apart may be missing. Equal entries are not always repeated. Entries after “also recorded” stand apart in the source; their conditions may differ.
# Tests used:
# [1] = Blood concentration test; type: in vivo; conditions: beagle dog fasted overnight, oral, DFNa 6 mg/kg body weight
# [2] = Plasma DFNa concentration in the gastric mucosa stimulus test; type: in vivo, male Wistar rats; conditions: DFNa 50 mg/kg body weight by intrastomach catheter, blood after 3.5 hours
# Description: (§1) Gastric mucosa stimulus test for the S/O type complex suspension obtained in Production example 1 was carried out. Specifically, according to the method disclosed by Tsurumi et al. (Folia Pharmacol. Japan, 69, pp.319-334 (1973)), five male Wistar rats having an average body weight of 140 g were fasted for 18 hours in advance, and were administered so that the dose amount of DFNa was 50 mg/kg body weight by means of an intrastomach catheter for rat. After 3.5 hours, the rats were sacrificed and dissected, and the condition of the gastric mucosa was observed. Also blood collected after 3.5 hours was centrifuged to obtain a plasma sample, and DFNa concentration in the plasma was determined by HPLC.
# [3] = test system: gastric mucosa; test: Gastric mucosa stimulus test
# Description: as §1
smiles,measurement,setting,value
"O=C(O)Cc1ccccc1Nc1c(Cl)cccc1Cl [DFNa solution, diclofenac sodium]",Area under medicine concentration curve,[1],62800 ng·h/mL
same,Maximum blood concentration,[1],26.4 µg/mL
same,Maximum blood concentration reach time,[1],1 h
same,half-life,[1]; serum,58.8 min
same,"Plasma DFNa concentration, Average","[2]; group average, rat",6.21 ± 2.03
same,Plasma DFNa concentration,[2]; individual rat,3.99 and 7.98 and 6.64
same,Condition of gastric mucosa,"[3]; individual rat, DFNa 50 mg/kg body weight by intrastomach catheter, observed after 3.5 hours",Dotted bleeding; also recorded: Gastric ulcer
same,abnormality in gastric mucosa,"[3]; rat, DFNa 50 mg/kg body weight",clear abnormality is observed
